The text below walks through data of patent US5686466A, “Tricyclic condensed heterocyclic compounds their production and use” (priority 1993, dated 1997).

Structures can show the parent of a compound that is named as a salt.

One data set has as its target T1, Acetylcholinesterase (Rattus norvegicus, UniProt P37136).
T1 construct: Using the S1 fraction of a male Wistar rat cerebral cortex homogenate as a source of cholinesterase; from tissue; host or cells: male Wistar rat cerebral cortex homogenate, S1 fraction
Briefly: cholinesterase inhibitory activity using (acetyl-[^3 H])-acetylcholine, S1 fraction of rat cerebral cortex homogenate. It counts as biochemical, male Wistar rat. Conditions: 30 min incubation.

For data set [1], the system named is [^3 H]-norepinephirine(NE) uptake. The data set is described as follows: monoamine uptake inhibition, [^3 H]-norepinephirine (NE), crude synaptosomal preparations of cerebral cortex and hippocampus. It counts as biochemical. Conditions: [^3 H]-NE 11 nM; 37° C; rat synaptosomes; read-out: Monoamine Reuptake Inhibitory Activity IC50, NE. On the procedure:
(§1) Effects of the compound of this invention on monoamine uptake were investigated using [^3 H]-norepinephirine(NE) and [3H]-serotonin (5-HT). Rats were sacrificed by decapitation. The cerebral cortex and hippocampus were removed and homogenized in 10-15 volumes (W/V) of an ice-cold medium containing 0.32M sucrose. Crude synaptosomal preparations (P2) were isolated after differential centrifugation at 1000×g for 10 min and 20,000×g for 30 min at 4° C. Synaptosomal membranes were suspended in Krebs-Ringer bicarbonate (KRB) solution (116 mM NaCl, 4.8 mM KCl, 1.3 mM CaCl2, 1.2 mM MgSO4, 1.2 mM NaH2 PO4, 25 mM NaHCO3, 0.1 mM EDTA-2Na, 11.1 mM D-glucose, 0.11 mM L-ascorbic acid, 0.01 mM pargyline). Synaptosomal membrane suspension (900 μl) was preincubated with the test compound dissolved in DMSO solution at 37° C. for 5 min. The reaction was initiated by addition of 100 μl of [^3 H]-NE (11 nM in final concentration) or [^3 H]-HT (10 nM in final concentration). Five minutes later, the reaction was stopped by the addition of 4 ml of ice-cold KRB and the reaction mixture was filtered through Whatman CF/B. Filters were washed twice with 4 ml of KRB and the radioactivity bound was counted with liquid scintillant. Imipramine was used as positive control.

Data set [2] concerns [3H]-serotonin (5-HT) uptake. Briefly: monoamine uptake inhibition, [3H]-serotonin (5-HT), crude synaptosomal preparations of cerebral cortex and hippocampus. Conditions: [^3 H]-HT 10 nM; 37° C; rat synaptosomes; read-out: Monoamine Reuptake Inhibitory Activity IC50, 5-HT. It counts as biochemical. On the procedure:
as §1

For data set [3] the following is noted: background art; cited from earlier work.

T1 sequence (P37136 32-614): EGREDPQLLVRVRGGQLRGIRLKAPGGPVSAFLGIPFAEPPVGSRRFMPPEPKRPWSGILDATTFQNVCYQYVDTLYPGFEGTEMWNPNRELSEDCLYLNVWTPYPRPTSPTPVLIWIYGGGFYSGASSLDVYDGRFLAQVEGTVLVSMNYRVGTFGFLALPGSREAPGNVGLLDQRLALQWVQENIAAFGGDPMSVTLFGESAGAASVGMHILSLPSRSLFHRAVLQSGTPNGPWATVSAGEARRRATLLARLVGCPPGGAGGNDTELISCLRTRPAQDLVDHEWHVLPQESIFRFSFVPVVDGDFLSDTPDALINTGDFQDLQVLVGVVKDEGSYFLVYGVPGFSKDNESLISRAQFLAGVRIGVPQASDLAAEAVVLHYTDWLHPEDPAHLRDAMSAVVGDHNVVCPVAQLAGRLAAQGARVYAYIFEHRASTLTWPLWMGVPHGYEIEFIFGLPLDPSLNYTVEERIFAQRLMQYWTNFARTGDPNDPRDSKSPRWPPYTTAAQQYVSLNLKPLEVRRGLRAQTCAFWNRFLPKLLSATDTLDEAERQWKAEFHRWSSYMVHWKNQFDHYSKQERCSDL
Protocol for Acetylcholinesterase: The cholinesterase inhibitory activity of the compound of the present invention was tested, using (acetyl-[^3 H])-acetylcholine. Using the S1 fraction of a male Wistar rat cerebral cortex homogenate as a source of cholinesterase, (acetyl-[^3 H])-acetylcholine, as a substrate, and the test compound, as a sample, were incubated for 30 minutes. After the reaction was terminated, a toluene scintillator was added and the reaction mixture was shaken to migrate the [^3 H]-acetic acid resulting from the reaction to the toluene layer, where radioactivity was counted using a liquid scintillation counter to determine the cholinesterase inhibitory activity.
The sample's cholinesterase inhibitory activity was expressed by 50% inhibitory concentration (IC50).

As for `Cc1ccccc1CN1CCN(CCC(=O)c2cc3c4c(c2)CC(=O)N4CCC3)CC1` [compound 23, 8-[3-[4-[(2-Methylphenyl)methyl]-1-piperazinyl]-1-oxopropyl]-5,6-dihydro-4H-pyroro[3,2,1-ij]quinolin-2(1H)-one dihydrochloride], the IC50 is 61.4 nM against Acetylcholinesterase, 2430 nM in data set [1] and 66.8 nM in data set [2]. Turning to `O=C(CCN1CCN(Cc2ccccc2)CC1)c1ccc2c(c1)C1CCCCC1N2` (stereo not shown) [19-1], the results for the IC50 in data set [1] and in data set [2] were 328 nM and 1670 nM, respectively. In the case of `O=C(CCN1CCC(Cc2ccccc2)CC1)c1cc2c3c(c1)CCN3C(=O)CC2` [31-4], the half-inhibitory concentration (IC50) turned out to be 188 nM against Acetylcholinesterase, 160 nM in data set [1] and 20.7 nM in data set [2]. Consider `Cc1ccc(CN2CCN(CCC(=O)c3cc4c5c(c3)CCN5C(=O)CC4)CC2)cc1C` [30-28], for which the half-inhibitory concentration (IC50) was 2810 nM in data set [1] and 61.5 nM in data set [2]. Take `O=C(CCN1CCN(Cc2cccc(Cl)c2)CC1)c1cc2c3c(c1)CCN3C(=O)CC2` [30-22]: the IC50 is 6.2 nM on Acetylcholinesterase, 795 nM in data set [1] and 60.1 nM in data set [2]. The corresponding values for `Cc1cccc(CN2CCN(CCC(=O)c3cc4c5c(c3)CCN5C(=O)CC4)CC2)c1` [30-19] are 11.9 nM, 2820 nM and 66 nM.

On to `O=C(CCN1CCN(Cc2ccccc2Cl)CC1)c1cc2c3c(c1)CCN3C(=O)CC2` [30-21], for which the IC50 worked out at 3.6 nM against Acetylcholinesterase, 1540 nM in data set [1] and 88.2 nM in data set [2]. In the same order, the values of `Cc1cccc(CN2CCN(CCC(=O)c3cc4c5c(c3)CC(=O)N5CCC4)CC2)c1` [30-1] are 28.7 nM, 4600 nM and 95.6 nM.

With `Cc1ccc(C)c(CN2CCN(CCC(=O)c3cc4c5c(c3)CCN5C(=O)CC4)CC2)c1` [30-27], the results for the half-maximal inhibitory concentration (IC50) (against Acetylcholinesterase; in data set [1]; in data set [2]) were 188 nM, 559 nM and 79.8 nM, respectively. With `O=C(CCN1CCN(Cc2ccc3c(c2)OCO3)CC1)c1cc2c3c(c1)CC(=O)N3CCC2` [31-1], the 50% inhibitory concentration (IC50) in data set [1] was determined as 6180 nM; in data set [2] it was 46.3 nM. In the same order, the values of `O=C(CCN1CCC(Cc2ccccc2)CC1)c1cc2c3c(c1)CC(=O)N3CCC2` [31-2] are 73.8 nM and 8.79 nM.

`O=C(CCC1CCN(Cc2cccc(F)c2)CC1)c1cc2c3c(c1)CCN3C(=O)CC2` [30-40] registered an IC50 against Acetylcholinesterase of 0.092 nM. Regarding `O=C(CCN1CCC(Cc2ccccc2)CC1)c1ccc2c(c1)CN(C(=O)c1ccccc1)Cc1ccccc1-2` [34-8], the IC50 in data set [1] was determined as 197 nM; in data set [2], 363 nM. `O=C(CCC1CCN(Cc2ccccc2Cl)CC1)c1cc2c3c(c1)CCN3C(=O)CC2` [30-42]: half-maximal inhibition against Acetylcholinesterase (IC50) required 0.54 nM.

As to `Cc1ccc(CN2CCN(CCC(=O)c3cc4c5c(c3)CC(=O)N5CCC4)CC2)cc1C` [30-8], the IC50 in data set [1] turned out to be 643 nM; in data set [2], 60.7 nM. Regarding `O=C(CCC1CCN(Cc2cccc([N+](=O)[O-])c2)CC1)c1cc2c3c(c1)CCN3C(=O)CC2` [30-52], on Acetylcholinesterase, the IC50 was found to be 0.36 nM.

The compound `O=C(CCC1CCN(Cc2ccc(Cl)cc2)CC1)c1cc2c3c(c1)CCN3C(=O)CC2` [30-44] came in with a half-maximal inhibitory concentration (IC50) on Acetylcholinesterase of 59.9 nM. Turning to `O=C(CCN1CCN(Cc2ccc([N+](=O)[O-])cc2)CC1)c1cc2c3c(c1)CC(=O)N3CCC2` [30-36], the IC50 in data set [1] turned out to be 7480 nM; in data set [2], 46.8 nM. `CCc1ccccc1CN1CCN(CCC(=O)c2cc3c4c(c2)CC(=O)N4CCC3)CC1` [30-6]: the figures for the half-inhibitory concentration (IC50) in data set [1] and in data set [2] were 5960 nM and 86.3 nM, respectively. On to `O=CN1Cc2cc(C(=O)CCN3CCN(Cc4ccccc4)CC3)ccc2Oc2ccccc21` [17-8], for which it took 47 nM to reach half-maximal inhibition against Acetylcholinesterase (IC50).

Regarding `O=CN1Cc2ccccc2-c2ccc(C(=O)CCN3CCC(Cc4ccccc4)CC3)cc2C1` [31-11], the IC50 in data set [1] turned out to be 515 nM; in data set [2], 69.5 nM.

Regarding `O=C(CCC1CCN(Cc2cccc(Cl)c2)CC1)c1cc2c3c(c1)CCN3C(=O)CC2` [30-43], half-maximal inhibition at Acetylcholinesterase (IC50) was put at 0.065 nM. Still for that read-out and setting: next, `O=C(CCN1CCN(Cc2ccccc2)CC1)c1ccc2c(c1)CN(Cc1ccccc1)Cc1ccccc1-2` [34-1]: 39.3 nM; `Cc1cccc(CN2CCC(CCC(=O)c3cc4c5c(c3)CCN5C(=O)CC4)CC2)c1` [30-46]: 0.2 nM. On the same count and under the same terms, to `O=C(CCN1CCN(Cc2ccccc2)CC1)c1ccc2c(c1)CNc1ccccc1C2` [32-2] belongs 115 nM; to `O=C(CCC1CCN(Cc2ccccc2)CC1)c1ccc2c3c(cccc13)CN(Cc1ccccc1)C2` [37-2], 184 nM.

As to `O=C(CCC1CCN(Cc2ccccc2F)CC1)c1cc2c3c(c1)CCN3C(=O)CC2` [30-39], it took 0.5 nM to reach half-maximal inhibition against Acetylcholinesterase (IC50).

With `O=C(CCN1CCN(Cc2ccccc2F)CC1)c1cc2c3c(c1)CCN3C(=O)CC2` [30-24], the half-inhibitory concentration (IC50) against Acetylcholinesterase came to 1.5 nM. On to `O=C(CCN1CCN(Cc2cccc(Cl)c2)CC1)c1cc2c3c(c1)CC(=O)N3CCC2` [30-4], for which the midpoint of inhibition against Acetylcholinesterase, the IC50, lay at 43 nM.

On to `O=C(CCN1CCN(Cc2ccccc2)CC1)c1ccc2c(c1)CNc1ccccc1O2` [32-3], for which the half-inhibitory concentration (IC50) at Acetylcholinesterase worked out at 59 nM. For the compound `CNC(=O)Oc1ccc2c(c1)[C@]1(C)CCN(C)[C@@H]1N2C` [physostigmine], in data set [3], the duration of action result is reported as “short duration of action” and the toxicity entry was “strong toxicity”. In the case of `O=C(CCN1CCN(Cc2ccccc2)CC1)c1ccc2c(c1)CN(C(=O)c1ccccc1)Cc1ccccc1-2` [34-4], the IC50 turned out to be 456 nM in data set [1] and 969 nM in data set [2]. In turn, `O=C(CCN1CCN(Cc2ccccc2F)CC1)c1cc2c3c(c1)CC(=O)N3CCC2` [30-10] registered an IC50 at Acetylcholinesterase of 18.9 nM. Still for that read-out and setting: to `O=C(CCC1CCN(Cc2ccccc2)CC1)c1cc2c3c(c1)CC(=O)N3CCC2` [30-34] belongs 0.5 nM. For `CN(C)CCCN1c2ccccc2CCc2ccccc21` [Imipramine, reference compound], the IC50 in data set [1] was found to be 1120 nM; in data set [2], 63 nM.

For `O=C(CCC1CCN(Cc2ccccc2)CC1)c1ccc2c3c1CCCC3CN2` (stereo not shown) [compound 4, 1-(1,2,2a,3,4,5-Hexahydrobenz[cd]indol-6-yl)-3-[1-(phenylmethyl)piperidin-4-yl]-1-propanone dihydrochloride], the figures for the half-inhibitory concentration (IC50) (on Acetylcholinesterase; in data set [1]; in data set [2]) were 91.8 nM, 347 nM and 601 nM, respectively. In the same order, the values of `O=C(CCN1CCN(Cc2cccc(F)c2)CC1)c1cc2c3c(c1)CCN3C(=O)CC2` [30-25] are 0.098 nM, 1310 nM and 11.7 nM.

In the case of `O=C(CCN1CCN(Cc2ccccc2)CC1)c1ccc2c3c1CCCC3CN2` (stereo not shown) [compound 2, 1-(1,2,2a,3,4,5-Hexahydrobenz[cd]indol-6-yl)-3-[1-(phenylmethyl)piperazin-4-yl]-1-propanone trihydrochloride], the results for the IC50 in data set [1] and in data set [2] were 420 nM and 594 nM, respectively. On to `N#Cc1ccccc1CN1CCC(CCC(=O)c2cc3c4c(c2)CCN4C(=O)CC3)CC1` [30-61], for which the IC50 on Acetylcholinesterase was 15.6 nM. The same measure, in the same setting: to `COc1ccccc1CN1CCC(CCC(=O)c2cc3c4c(c2)CCN4C(=O)CC3)CC1` [30-48] belongs 17.1 nM; to `O=C(CCN1CCN(Cc2ccccc2O)CC1)c1cc2c3c(c1)CC(=O)N3CCC2` [30-16], 5.8 nM; to `O=C(CCC1CCN(Cc2ccc(O)cc2)CC1)c1cc2c3c(c1)CCN3C(=O)CC2` [30-60], 0.078 nM.

As usually defined, the IC50 is the point on the concentration scale where inhibition reaches its midpoint.
